Test results published in US20080173808A1, “PROCESS AND DEVICE FOR RESPONSE NORMALIZED LIQUID CHROMATOGRAPHY NANOSPRAY IONIZATION MASS SPECTROMETRY (RNLC-NSI-MS)” (Schering Corporation, priority 2007, published 2008).

Experiment: Nanoflow ESI (NanoMate-QTOF), RNLC-NSI-MS of drug and metabolites
Conditions: Vicriviroc and its metabolites, relative LC-MS response, M35 = 100
Description: For experiments described herein, high performance liquid chromatography (HPLC) separations of analytes were performed at room temperature using the first HPLC system referred to in FIG. 1 as “analytical HPLC”. […] The analytical HPLC column effluent was split (mixing tee 1 or T-1 in FIG. 1) so that 15-25% of the flow was directed to a second mixing tee (T-2 in FIG. 1) connected to the NSI source and 75-85% diverted to an auxiliary detector (e.g. a radioactivity detector (10-11) or a charged aerosol detector (12-13)). Separation of metabolites was achieved using the analytical HPLC system and programmed linear changes in mobile phase composition as shown in Table 1.
A second HPLC pump, referred to in FIG. 1 as the “Response Normalizing HPLC”, was used to deliver an exactly inverse gradient. Inverse gradient was achieved by switching the aqueous mobile phase to pump B and the organic mobile phase to pump A and using the same gradient program as the one used in the analytical HPLC system. The flow rate of the Response Normalizing HPLC system was maintained between 0.1 and 0.2 mL/min. […] The “Response Normalizing Flow” was introduced into the NSI source via a second mixing tee (T-2). HPLC flows from the analytical HPLC and from the “Response Normalizing HPLC” were combined in the second mixing tee (T-2). The combined flow was delivered to the NSI (NanoMate, API, or any other ion sources) via a union (referred in FIG. 1 as “bulkhead”). For NSI experiments, the combined flow is further split using a mixing tee. The split ratio within the NSI source was manipulated by adjusting the various diameters and lengths of fused silica capillary tubing used to deliver the flow to MS and the fraction collector/waste. Approximately 1-5% of the combined flow was delivered to the NSI source for MS analysis.

COC[C@@H](c1ccc(C(F)(F)F)cc1)N1CCN(C2(C)CCN(C(=O)c3c(C)ncnc3C)CC2)C[C@@H]1C [Vicriviroc]
Nanoflow ESI (NanoMate-QTOF) 0.15 mL/min Normalizing HPLC flow (0.15 mL/min normalizing flow): 23.0
Nanoflow ESI (NanoMate-QTOF) 0.2 mL/min Normalizing HPLC flow (0.2 mL/min normalizing flow): 14.3
Nanoflow ESI (NanoMate-QTOF) Without Normalizing HPLC flow (no normalizing flow): 50.0
